Laboratory results reported in US20150328245A1, “Agents for Eliminating Tumour-Initiating Cells” (priority 2012, published 2015).

Assays:
DU145 [1] = test: In vitro colorimetric cell death assay (MTT); type: cell-based; conditions: Homo sapiens
Procedure: (§1) It's an in vitro colorimetric assay for assessing cell viability where the cells are grown in Two-dimensional surface.
(§2) An exemplary procedure for the assay follows. Cancer cells and normal cells were plated in a 96 well plate as per predetermined plating efficiency. The plate was incubated for 24 hours in a 5% CO2 atmosphere at 37 degrees Celsius, a range of concentrations of the compounds I-1, I-2 and I-3 as well as cisplatin (known chemotherapeutic agents) were added to the separate wells, the plate was incubated further for 48 hours in a 5% CO2 atmosphere, the plate was centrifuged twice at 3000 rpm for 3 minutes, the supernatant fluid was discarded, 100 uL of 0.5 mg/mL MTT solution was added and the plate was incubated for 4 hours in a 5% CO2 atmosphere at 37 degrees Celsius. The plate was then centrifuged twice at 3000 rpm for 3 minutes, supernatant, was aspirated very carefully, 200 uL DMSO was added to each well to solubilize MTT crystals and mixed well by shaking the plate, the plate was incubated for 10 minutes in a 5% CO2 atmosphere at 37 degrees Celsius, the plate placed on the shaker of an ELISA plate reader and the absorbance at 570 nm was measured, then the percentage of viable cells remaining was calculated by first subtracting the background absorbance then comparing to the absorbance of a non-drug-treated cell sample, and the results were plotted on a graph to determine the IC50 for the compounds and cisplatin.

L 929 = test: In vitro colorimetric cell death assay (MTT); type: cell-based; conditions: Mus musculus, L929, 48 h
Procedure: as §1, §2

[2] = system: MCF10A (normal breast cell line); test: In vitro colorimetric cell death assay (MTT); type: cell-based; conditions: 48 hours
Procedure: as §1, §2

MDAMB231 [3] = test: In vitro soft agar colony forming growth assay; type: cell-based; conditions: Homo sapiens, MDA-MB-231, 168 h
Procedure: (§3) The Soft Agar Assay for Colony Formation is considered the most stringent assay for detecting malignant transformation of cells. In this assay the cells are cultured in medium with low percentage of agar.
(§4) An exemplary procedure for the assay follows.

HeLa = test: In vitro soft agar colony forming growth assay; type: cell-based; conditions: Homo sapiens, 168 h
Procedure: as §3, §4

L929 = test: In vitro soft agar colony forming growth assay; type: cell-based; conditions: Mus musculus, L929, 168 h
Procedure: as §3, §4

cancer cell lines = test: In vitro colorimetric cell death assay (MTT), overall statement; type: cell-based
Procedure: as §1, §2

[4] = In vivo maximum tolerated dose assay for compound I-1; parameters: species or system nude mice
Procedure: In vivo maximum tolerated dose (MTD) toxicity assay was carried out to evaluate the highest dose of a pharmaceutical treatment that will produce the desired effect without unacceptable toxicity. The purpose of administering MTD is to determine whether long-term exposure to a compound might lead to unacceptable adverse health effects in a subject, when the level of exposure is not sufficient to cause premature mortality due to short-term toxic effects.
An exemplary procedure for the in vivo maximum tolerated dose toxicity assay follows. A statistically appropriate number of male and female nude mice were injected with a single dose of either 30 mg/kg, 10 mg/kg, 5 mg/kg, and 2.5 mg/kg of a compound I-1 interperitoneally (i.p.) on day zero. The number of mice surviving from each dose group after the first through fourth days was recorded, and the Maximum Tolerated Dose (“MTD”; e.g. the dose at which 100% of the animals survived after 4 days) was determined.

MDAMB231 [5] = test: In vitro colorimetric cell death assay (MTT); type: cell-based; conditions: Homo sapiens, MDA-MB-231, 48 hours
Procedure: as §1, §2

LNCaP = test: In vitro colorimetric cell death assay (MTT); type: cell-based; conditions: Homo sapiens, 48 hours
Procedure: as §1, §2

T47D [6] = test: In vitro colorimetric cell death assay (MTT); type: cell-based; conditions: Homo sapiens, 48 hours
Procedure: as §1, §2

PC3 [7] = test: In vitro colorimetric cell death assay (MTT); type: cell-based; conditions: Homo sapiens, PC-3, 48 hours
Procedure: as §1, §2

DU145 [8] = test: In vitro soft agar colony forming growth assay; type: cell-based; conditions: Homo sapiens, DU-145, 168 h, one week
Procedure: as §3, §4

T47D [9] = test: In vitro soft agar colony forming growth assay; type: cell-based; conditions: Homo sapiens, 168 h, one week
Procedure: as §3, §4

PC3 [10] = test: In vitro soft agar colony forming growth assay; type: cell-based; conditions: Homo sapiens, PC-3, 168 h, one week
Procedure: as §3, §4

[11] = system: breast cancer cells MDA MB 231; test: In vitro 3D primary sphere forming stem cell assay; type: cell-based
Procedure: (§5) This assay measures the ability of cancer stem cells to form spheres in a serum free media where the spheres are in a suspended form. Through this assay we evaluated the potency of the compounds of the invention to kill cancer stem cells in comparison with the known chemotherapeutic agent Cisplatin.
(§6) An exemplary procedure for the assay follows. Cells were grown in three dimensions on a plastic substrate, harvested in suspension in serum-free media, then the cells in the sample were trypsinized and a single cell suspension was formed by passing through a cell strainer. The cells were diluted according to the predetermined plating efficiency for the cell line being studied by suspending the cells in stem cell culture medium. 100 uL of this suspension was added into each well of a 96 well suspension plate, and the plate was incubated at 37 degrees Celsius in 5% CO2 atmosphere for 24 hours, then 2 uL of appropriate concentrations of the compounds of the invention and cisplatin were added into each respective well along with 100 uL of stem cell culture medium, and the plates were incubated at 37 degrees Celsius under 5% CO2 atmosphere for 72 hours. 2.5 uL of the compounds of the invention and cisplatin were added to each respective well along with 50 uL of stem cell culture medium and then the plates were incubated at 37 degrees Celsius under 5% CO2 atmosphere for 72 hours. 3 uL of appropriate concentrations of the compounds of the invention and cisplatin were added to each respective well along with 50 uL of stem cell culture medium and then the plates were incubated at 37 degrees Celsius under 5% CO2 atmosphere for 72 hours, then the spheres formed were observed under a microscope then counted and scored by size.
(§7) Results of the in vitro 3D sphere forming stem cell assay are set forth in a tabular manner. The number in each box is the total number of spheres formed in the presence of either cisplatin or compound I-2 or compound I-3 at each drug concentration. GC refers to a growth control performed in the absence of drug or solvent (DMSO). GCD refers to a growth control performed in the absence of drug, but in the presence of DMSO.

[12] = system: breast cancer cells MCF-7; test: In vitro 3D primary sphere forming stem cell assay; type: cell-based
Procedure: as §5, §6, §7

COc1cc2c(OC3OCC(OC)C(OC)C3OC(C)=O)c3c(c(-c4ccc5c(c4)OCO5)c2cc1OC)C(=O)OC3 (stereo not drawn) [I-1]
IC50 (DU145 [1]; DU-145, 48 h): 37.6 µM
IC50 (L 929): 1.23 µM
IC50 [2]: No activity
IC50 (MDAMB231 [3]): 5.88 µM
IC50 (HeLa): 5.12 µM
IC50 (L929): 3.63 µM
anticancer activity in cancer cell lines as compared to cisplatin (cancer cell lines): high anticancer activity
Number of mice surviving after injection ([4]; 2.5 mg/kg single dose i.p., day 0): 6/6
Number of mice surviving after injection ([4]; 2.5 mg/kg single dose i.p., day 1): 6/6
Number of mice surviving after injection ([4]; 2.5 mg/kg single dose i.p., day 2): 6/6
Number of mice surviving after injection ([4]; 2.5 mg/kg single dose i.p., day 3): 6/6
Number of mice surviving after injection ([4]; 2.5 mg/kg single dose i.p., day 4): 6/6
Number of mice surviving after injection ([4]; 5 mg/kg single dose i.p., day 0): 6/6
Number of mice surviving after injection ([4]; 5 mg/kg single dose i.p., day 1): 6/6
Number of mice surviving after injection ([4]; 5 mg/kg single dose i.p., day 2): 6/6
Number of mice surviving after injection ([4]; 5 mg/kg single dose i.p., day 3): 6/6
Number of mice surviving after injection ([4]; 5 mg/kg single dose i.p., day 4): 6/6
Number of mice surviving after injection ([4]; 10 mg/kg single dose i.p., day 0): 6/6
Number of mice surviving after injection ([4]; 10 mg/kg single dose i.p., day 1): 4/6
Number of mice surviving after injection ([4]; 10 mg/kg single dose i.p., day 2): 4/6
Number of mice surviving after injection ([4]; 10 mg/kg single dose i.p., day 3): 4/6
Number of mice surviving after injection ([4]; 10 mg/kg single dose i.p., day 4): 4/6
Number of mice surviving after injection ([4]; 30 mg/kg single dose i.p., day 0): 4/6
Number of mice surviving after injection ([4]; 30 mg/kg single dose i.p., day 1): 4/6
Number of mice surviving after injection ([4]; 30 mg/kg single dose i.p., day 2): 0/6
Number of mice surviving after injection ([4]; 30 mg/kg single dose i.p., day 3): 0/6
Number of mice surviving after injection ([4]; 30 mg/kg single dose i.p., day 4): 0/6
MTD ([4]; single dose i.p., nude mice): 5-10 mg/kg body weight
dose that resulted in 100% survival of mice after 4 days ([4]; single dose i.p., nude mice): about 5 mg/kg

COc1cc2c(OC3OCC(O)C(O)C3O)c3c(c(-c4ccc5c(c4)OCO5)c2cc1OC)C(=O)OC3 (stereo not drawn) [I-3, 9-(1,3-benzodioxol-5-yl)-4-[(3,4,5-trihydroxytetrahydro-2H-pyran-2-yl)oxy]naphtho-6,7-dimethoxynaphtho[2,3-c]furan-1(3H)-one]
IC50 (DU145 [1]; DU-145, DU145, MTT, 48 hours, read-out: IC 50): 9.55 µM
IC50 (MDAMB231 [5]): 10 µM
IC50 (LNCaP): 3.16 µM
IC50 (T47D [6]): 21.1 µM
IC50 (PC3 [7]): 13.5 µM
IC50 (DU145 [8]): 0.661 µM
IC50 (MDAMB231 [3]; MDAMB231, soft agar, one week, read-out: IC 50): 0.55 µM
IC50 (T47D [9]): 0.7 µM
IC50 (PC3 [10]): 0.85 µM
anticancer activity in cancer cell lines as compared to cisplatin (cancer cell lines): high anticancer activity
numbers of primary spheres formed, compared with cisplatin ([11]; MDA MB 231): significantly less
# of 3D Primary Spheres Formed of Cells MDA MB231 (±SD) ([11]; final conc. 0.125 μM): 54(±5)
# of 3D Primary Spheres Formed of Cells MDA MB231 (±SD) ([11]; final conc. 1.25 μM): 38(±5)
# of 3D Primary Spheres Formed of Cells MDA MB231 (±SD) ([11]; final conc. 12.5 μM): 31(±5)
# of 3D Primary Spheres Formed of Cells MDA MB231 (±SD) ([11]; final conc. 125 μM): 9(±2)
# of 3D Primary Spheres Formed of Cells MDA MB231 (±SD) ([11]; final conc. 1250 μM): 0(±0)
numbers of primary spheres formed, compared with cisplatin ([12]; MCF-7): significantly less
# of 3D Primary Spheres Formed of Cells MCF-7 (±SD) ([12]; final conc. 0.125 μM): 74(±10)
# of 3D Primary Spheres Formed of Cells MCF-7 (±SD) ([12]; final conc. 1.25 μM): 57(±5)
# of 3D Primary Spheres Formed of Cells MCF-7 (±SD) ([12]; final conc. 12.5 μM): 48(±10)
# of 3D Primary Spheres Formed of Cells MCF-7 (±SD) ([12]; final conc. 125 μM): 28(±6)
# of 3D Primary Spheres Formed of Cells MCF-7 (±SD) ([12]; final conc. 1250 μM): 0(±0)
